Results: patent US20140357512A1, “HISTONE DEACETYLASE (HDAC) BIOMARKERS IN MULTIPLE MYELOMA” (priority 2013, published 2014)

Test system: human myeloma cell line MM.1S
Test: SILAC acetylated-lysine peptide profiling, HDAC inhibitor vs DMSO (light/heavy ratio)
Type: cell-based
Excerpt: An embodiment of the invention comprises utilizing the SILAC method in order to quantitate changes in protein expression between two or more populations of cells. The SILAC method is a technique based on mass spectrometry that detects differences in protein abundance among samples using non-radioactive isotopic labeling. The SILAC method is known in the art, and described in detail in Ong et al., “Stable Isotope Labeling by Amino Acids in Cell Culture, SILAC, as a Simple and Accurate Approach to Expression Proteomics”, Molecular & Cellular Proteomics, vol. 1, pp. 376-386 (2002), which is incorporated herein by reference in its entirety.
Briefly, the SILAC method involves growing two populations of cells in cell culture. The first population of cells is grown in growth media containing normal amino acids (“normal media”). The second population of cells is grown in media lacking a standard essential amino acid (such as lysine), but is then supplemented with a non-radioactive, isotopically labeled form of that essential amino acid (such as lysine labeled with ^13C atoms, rather than normal ^12C atoms), which is called “heavy media”. When the two populations of cells are each growing in the medium, they incorporate the amino acids into all of their proteins. The growth of cells maintained in the heavy media is no different from that in normal media. All peptides containing the heavy amino acids are heavier than their normal counterparts. The cells from each of the two populations of cells are lysed. The lysates from each of the two cell populations are then combined. The combined cell lysates are then analyzed by mass spectrometry. Pairs of chemically identical peptides of different stable isotope composition can be differentiated in a mass spectrometer due to their difference in mass. The ratio of peak intensities in the mass spectrum for such peptide pairs reflects the abundance ratio for the two proteins.
This example describes SILAC studies that were performed to compare the effects of three different HDAC inhibitors (Compound A, Compound B, and tubastatin A) to a control on a human multiple myeloma cell line. The HDAC inhibitors were also compared amongst themselves to determine differences in their effects.
A human myeloma cell line MM.1S was grown using either ^12C (light) or ^13C (heavy) lysine containing culture medium. The “heavy” cells were treated with DMSO as the control, and the “light” cells were treated with a single HDAC inhibitor at 37° C. for 6 hours. The heavy and light cells were lysed, and the lysates were mixed in 1:1 ratio and digested with the protease trypsin. The acetylated lysine containing peptides (due to the action of the HDAC inhibitor) in the digested peptide pool were captured by a non-specific anti-acetylated lysine antibody cocktail (the antibodies identify both light and heavy acetylated peptides), and subjected to mass spectrometry analysis in order to identify thousands of individual peptides.
Thousands of peptides were identified in pairs (^12C and ^13C) due to their known mass differences. The amino acid sequence and quantitative ratio (Light/Heavy) of a given peptide in two differentially treated cell lysates were then determined and annotated with their possible protein (gene) sources.
As stated above, three HDAC inhibitors (Compound A, Compound B, and Tubastatin A) were used. Thus, the SILAC method was performed three times, with a different HDAC inhibitor compared to a control each time. Accordingly, there are three pairs of quantitative data in the table below, i.e., Compound A:DMSO, Compound B:DMSO, and Tubastatin A:DMSO. A cut-off of 1.30 fold of change (increase or decrease) was then used to determine “changed” or “+” in the table, and any peptides with a fold of change less than 1.3 fold were determined to be “unchanged” or “0” in the table. Those peptides that were not identified were marked as “NA” in the table. […]

## O=C(NO)c1cnc(NC2(c3cccc(F)c3)CCCCC2)nc1 [Compound B, 2-((1-(3-fluorophenyl)cyclohexyl)amino)-N-hydroxypyrimidine-5-carboxamide]
SEQ ID NO: 725, four and a half LIM domains protein 1 isoform 5 [20], FHL1
  L/H ratio of acetylated peptide (ac)AEK(ac)FDCHYCR: 0.00 log 2
SEQ ID NO: 726, Endoplasmic reticulum resident protein 29 [48], ERP29
  L/H ratio of acetylated peptide […](ac)VIPK: 0.00 log 2
SEQ ID NO: 728, Branched-chain-amino-acid aminotransferase [281], BCAT2
  L/H ratio of acetylated peptide TITMK(ac)QLLR: 0.00 log 2
SEQ ID NO: 729, Endoplasmic reticulum resident protein 29 [54], ERP29
  L/H ratio of acetylated peptide SK(ac)FVLVK: 0.00 log 2
SEQ ID NO: 731, Isoform 1 of Myosin-9 [651], MYH9
  L/H ratio of acetylated peptide TVGQLYK(ac)EQLAK: 0.00 log 2
SEQ ID NO: 732, NADH dehydrogenase [ubiquinone] 1 alpha subcomplex assembly factor 4 [91], NDUFAF4
  L/H ratio of acetylated peptide AAETCQEPK(ac)EFR: 0.00 log 2
SEQ ID NO: 735, 60S ribosomal protein L19 [144], RPL19
  L/H ratio of acetylated peptide ILMEHIHK(ac)LK: 0.00 log 2
SEQ ID NO: 737, Isoform 1 of Myosin-9 [1445], MYH9
  L/H ratio of acetylated peptide K(ac)FDQLLAEEK: 0.00 log 2
SEQ ID NO: 738, Isoform 2 of LIM and senescent cell antigen-like-containing domain protein 2 [326], LIMS2
  L/H ratio of acetylated peptide FVEFDMK(ac)PVCK: 0.00 log 2
SEQ ID NO: 740, Aspartate aminotransferase mitochondrial [90], GOT2
  L/H ratio of acetylated peptide KAEAQIAAK(ac)NLDK: 0.00 log 2
SEQ ID NO: 744, Peptidyl-prolyl cis-trans isomerase F mitochondrial [86], PPIF
  L/H ratio of acetylated peptide ALCTGEK(ac)GFGYK: 0.00 log 2
SEQ ID NO: 745, ADP/ATP translocase 2 [166], SLC25A5
  L/H ratio of acetylated peptide IYK(ac)SDGIK: 0.00 log 2
SEQ ID NO: 748, Peptidyl-prolyl cis-trans isomerase D [43], PPID
  L/H ratio of acetylated peptide VPK(ac)TAENFR: 0.00 log 2
SEQ ID NO: 749, Isoform 1 of LIM and SH3 domain protein 1 [23], LASP1
  L/H ratio of acetylated peptide VNCLDK(ac)FWHK: 0.00 log 2
SEQ ID NO: 750, Malate dehydrogenase mitochondrial [335], MDH2
  L/H ratio of acetylated peptide KGEDFVK(ac)TLK: 0.00 log 2
SEQ ID NO: 751, Signal peptidase complex subunit 2 [191], LOC653566, SPCS2
  L/H ratio of acetylated peptide EAEFTK(ac)SIAK: 0.00 log 2
SEQ ID NO: 754, Protein disulfide-isomerase A3 [218], PDIA3
  L/H ratio of acetylated peptide FEDK(ac)TVAYTEQK: 0.00 log 2
SEQ ID NO: 756, Protein disulfide-isomerase [308], P4HB
  L/H ratio of acetylated peptide ILEFFGLK(ac)K: 0.00 log 2
SFEEK(ac)VENLK (SEQ ID NO: 233), Isoform 1 of Tumor protein D52 [180], TPD52
  light to heavy ratio (L/H ratio) of acetylated peptide, log 2 scale: 0.00
SFPQ [319], log 2 scale, drug vs DMSO
  L/H ratio of acetylated peptide LFAK(ac)[…] (SEQ ID NO: 98): 0.00
SFXN1 [86], log 2 scale, drug vs DMSO
  L/H ratio of acetylated peptide […](ac)MILIGR (SEQ ID NO: 100): 0.00
SFYYK(ac)LR (SEQ ID NO: 395), Fatty acid synthase [2426], FASN
  L/H ratio of acetylated peptide: −0.74 log 2
SLC25A5 [23], log 2 scale, drug vs DMSO
  L/H ratio of acetylated peptide […](ac)TAVAPIER (SEQ ID NO: 11): −0.47
SLC25A5 [92], log 2 scale, drug vs DMSO
  L/H ratio of acetylated peptide […](ac)DK (SEQ ID NO: 103): 0.00
SLC25A5 [272], log 2 scale, drug vs DMSO
  L/H ratio of acetylated peptide AFFK(ac)GAWSNVLR (SEQ ID NO: 102): 0.00
SLC25A10 [173], log 2 scale, drug vs DMSO
  L/H ratio of acetylated peptide […](ac)ANVAK (SEQ ID NO: 101): 0.00
SNORA6, RPSAP15, SNORA62, RPSA [57], log 2 scale, drug vs DMSO
  L/H ratio of acetylated peptide TWEK(ac)LLLAAR (SEQ ID NO: 104): 0.00
SQNTK(ac)[…] (SEQ ID NO: 458), Nucleoprotein TPR [713], TPR
  L/H ratio of acetylated peptide: −0.45 log 2
SQSCETK(ac)LLDEK (SEQ ID NO: 410), Isoform 3 of Pro-interleukin-16 [277], IL16
  L/H ratio of acetylated peptide: −0.53 log 2
SRSF1 [38], log 2 scale, drug vs DMSO
  L/H ratio of acetylated peptide […](ac)YGAIR (SEQ ID NO: 107): 0.00
STT3B [10], log 2 scale, drug vs DMSO
  L/H ratio of acetylated peptide (ac)AEPSAPESK(ac)HK (SEQ ID NO: 108): 0.00
Serine hydroxymethyltransferase mitochondrial [469], gene SHMT2, inhibitor:DMSO
  light to heavy ratio (L/H ratio) of acetylated peptide LQDFK(ac)SFLLK (SEQ ID NO: 582): 0.00 log 2
Serine hydroxymethyltransferase mitochondrial [474], gene SHMT2, inhibitor:DMSO
  light to heavy ratio (L/H ratio) of acetylated peptide SFLLK(ac)DSETSQR (SEQ ID NO: 567): 0.00 log 2
Signal peptidase complex subunit 2 [38], gene LOC653566, SPCS2, inhibitor:DMSO
  light to heavy ratio (L/H ratio) of acetylated peptide SGLLDK(ac)WK (SEQ ID NO: 602): 0.00 log 2
Small acidic protein [174], C11orf58, drug:DMSO
  light to heavy ratio (L/H ratio) of acetylated peptide SNYK(ac)MMFVK (SEQ ID NO: 368): −0.45 log 2
Stress-70 protein mitochondrial [135], gene HSPA9, inhibitor:DMSO
  light to heavy ratio (L/H ratio) of acetylated peptide YDDPEVQK(ac)DIK (SEQ ID NO: 578): 0.00 log 2
Stress-induced-phosphoprotein 1 [325], gene STIP1, inhibitor:DMSO
  light to heavy ratio (L/H ratio) of acetylated peptide […](ac)SLAEHR (SEQ ID NO: 534): 0.00 log 2
TAMK(ac)YNLGLDLR (SEQ ID NO: 158), Glutamate dehydrogenase 1 mitochondrial [527], GLUD1
  light to heavy ratio (L/H ratio) of acetylated peptide, log 2 scale: 0.00
TFYQMYDK(ac)GLVYR (SEQ ID NO: 407), Isoleucyl-tRNA synthetase mitochondrial [233], IARS2
  L/H ratio of acetylated peptide: −0.56 log 2
TLQYK(ac)[…] (SEQ ID NO: 252), 40S ribosomal protein S16 [50], RPS16
  light to heavy ratio (L/H ratio) of acetylated peptide, log 2 scale: 0.00
TPSVGK(ac)[…] (SEQ ID NO: 418), Isoform Long of Antigen KI-67 [2264], MKI67
  L/H ratio of acetylated peptide: −0.86 log 2
TPVIVTLK(ac)ENER (SEQ ID NO: 176), Hypoxia up-regulated protein 1 [75], HYOU1
  light to heavy ratio (L/H ratio) of acetylated peptide, log 2 scale: 0.00
TTHLIAK(ac)EEMIHNLQ (SEQ ID NO: 435), 26S proteasome non-ATPase regulatory subunit 12 [448], PSMD12
  L/H ratio of acetylated peptide: −0.38 log 2
TTTCSK(ac)LAYYYQR (SEQ ID NO: 451), Signal recognition particle 54 kDa protein [120], SRP54
  L/H ratio of acetylated peptide: 0.40 log 2
TUBB2C [58], log 2 scale, drug vs DMSO
  L/H ratio of acetylated peptide […](ac)YVPR (SEQ ID NO: 109): 0.00
TUFM [91], log 2 scale, drug vs DMSO
  L/H ratio of acetylated peptide ILAEGGGAK(ac)FK (SEQ ID NO: 110): 0.00
TVSK(ac)[…] (SEQ ID NO: 428), 6-phosphogluconate dehydrogenase decarboxylating [38], PGD
  L/H ratio of acetylated peptide: 0.74 log 2
TXN [8], log 2 scale, drug vs DMSO
  L/H ratio of acetylated peptide QIESK(ac)[…] (SEQ ID NO: 111): 0.00
TXNDC5, MUTED, MUTED-TXNDC5 [118], log 2 scale, drug vs DMSO
  L/H ratio of acetylated peptide VYVAK(ac)[…] (SEQ ID NO: 113): 0.00
TXNDC5, MUTED, MUTED-TXNDC5 [150], log 2 scale, drug vs DMSO
  L/H ratio of acetylated peptide […](ac)YQGPR (SEQ ID NO: 112): 0.00
TYGEIFEK(ac)FHPIR (SEQ ID NO: 188), NADH dehydrogenase [ubiquinone] 1 subunit C2 [114], NDUFC2
  light to heavy ratio (L/H ratio) of acetylated peptide, log 2 scale: 0.00
Thioredoxin domain-containing protein 5 [390], TXNDC5, MUTED, MUTED-TXNDC5, drug:DMSO
  light to heavy ratio (L/H ratio) of acetylated peptide NICSK(ac)YSVR (SEQ ID NO: 256): 0.00 log 2
Transitional endoplasmic reticulum ATPase [109], gene VCP, drug:DMSO
  light to heavy ratio (L/H ratio), log 2 scale, acetylated peptide […](ac)YGK (SEQ ID NO: 817): 0.00
Transmembrane protein 43 [159], gene TMEM43, inhibitor:DMSO
  light to heavy ratio (L/H ratio) of acetylated peptide SEIINSK(ac)NFDR (SEQ ID NO: 525): 0.00 log 2
Tricarboxylate transport protein mitochondrial [149], gene SLC25A1, inhibitor:DMSO
  light to heavy ratio (L/H ratio) of acetylated peptide VK(ac)[…] (SEQ ID NO: 562): 0.00 log 2
Trifunctional enzyme subunit alpha mitochondrial [359], gene HADHA, drug:DMSO
  light to heavy ratio (L/H ratio), log 2 scale, acetylated peptide FGAPQK(ac)DVK (SEQ ID NO: 788): 0.00
Trifunctional enzyme subunit alpha mitochondrial [569], gene HADHA, drug:DMSO
  light to heavy ratio (L/H ratio), log 2 scale, acetylated peptide ILQEGVDPK(ac)K (SEQ ID NO: 789): 0.00
Trifunctional enzyme subunit beta mitochondrial [272], HADHB, drug:DMSO
  light to heavy ratio (L/H ratio) of acetylated peptide VPGK(ac)DTVTK (SEQ ID NO: 308): 0.00 log 2
U2AF2 [462], log 2 scale, drug vs DMSO
  L/H ratio of acetylated peptide VVVTK(ac)YCDPDSYHR (SEQ ID NO: 114): 0.00
VAHLALK(ac)HR (SEQ ID NO: 436), Isoform Rpn10A of 26S proteasome non-ATPase regulatory subunit 4 [9]8, PSMD4
  L/H ratio of acetylated peptide: −0.57 log 2
VDAC1 [224], log 2 scale, drug vs DMSO
  L/H ratio of acetylated peptide FGIAAK(ac)[…] (SEQ ID NO: 115): 0.00
VDAC2 [63], log 2 scale, drug vs DMSO
  L/H ratio of acetylated peptide YK(ac)[…] (SEQ ID NO: 116): 0.00
VDAC3 [12], log 2 scale, drug vs DMSO
  L/H ratio of acetylated peptide (ac)[…](ac)AAK (SEQ ID NO: 6): −0.63
VDAC3 [63], log 2 scale, drug vs DMSO
  L/H ratio of acetylated peptide YK(ac)[…] (SEQ ID NO: 117): 0.00
